Data taken from article PMC4411481, “Cyclic nucleotide binding and structural changes in the isolated GAF domain of Anabaena adenylyl cyclase, CyaB2” (PeerJ, 2015).
Where two headings read alike, the source gives them in different places.

What was measured:
[1] = system: I308A mutant GAFb domain of CyaB2; assay type: binding, Anabaena sp. PCC 7120
[2] = system: T293A mutant GAFb domain of CyaB2; assay: Cyclic nucleotide binding assay, T293A mutant GAFb; parameters: species or system Anabaena sp. PCC 7120
[3] = system: GAFb sensor (GFP2-GAFb-Rluc); assay: In vitro BRET assay, GAFb sensor; assay type: biochemical, Anabaena sp. PCC 7120; details: cell lysate, 1 mM cNMP, 37 °C 10 min
[4] = system: GAFab sensor (GFP2-GAFab-Rluc); assay: In vitro BRET assay, GAFab sensor; assay type: biochemical, Anabaena sp. PCC 7120; details: cell lysate, 1 mM cNMP
PDE5 GAFa(F163A) sensor = biological target: T1, PDE5 GAFa(F163A) sensor (Homo sapiens, UniProt O76074, F205A); assay: In vitro BRET assay, PDE5 GAFa(F163A) sensor; assay type: biochemical; details: cell lysate, 1 mM cNMP, 37 °C 10 min
T1 construct: We used the F163A mutant GAFa domain of PDE5; expressed in transfected cells; host or cells: HEK293T lysate

[5] = system: NterGAFab sensor (GFP2-NterGAFab-Rluc); assay: In vitro BRET assay, NterGAFab sensor; assay type: biochemical, Anabaena sp. PCC 7120; details: cell lysate, 1 mM cNMP
[6] = biological target: T2, tandem GAFab domains of CyaB2 (residues S77 to L431, GST fusion) (Nostoc sp. PCC 7120 (Anabaena sp. PCC 7120), UniProt P94182); assay: biochemical; assay type: binding
T2 sequence (P94182 77-431): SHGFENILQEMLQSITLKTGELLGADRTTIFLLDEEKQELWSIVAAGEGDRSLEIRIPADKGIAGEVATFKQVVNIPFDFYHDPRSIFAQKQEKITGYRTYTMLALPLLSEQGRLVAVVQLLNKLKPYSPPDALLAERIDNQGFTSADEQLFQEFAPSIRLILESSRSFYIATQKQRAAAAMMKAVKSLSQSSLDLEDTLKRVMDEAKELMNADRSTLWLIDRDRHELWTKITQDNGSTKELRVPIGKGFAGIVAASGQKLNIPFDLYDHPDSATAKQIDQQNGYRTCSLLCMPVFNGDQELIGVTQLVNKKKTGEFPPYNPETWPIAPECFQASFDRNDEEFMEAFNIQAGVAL

[7] = system: tandem GAFab domains of CyaB2 (residues S77 to L431, GST fusion); assay: biochemical; assay type: binding, Anabaena sp. PCC 7120; details: tandem GAFab vs isolated GAFb
[8] = biological target: T3, isolated GAFb domain of CyaB2 (residues Leu 270 to Leu 431, GST fusion) (Nostoc sp. PCC 7120 (Anabaena sp. PCC 7120), UniProt P94182); assay: Cyclic nucleotide binding assay (3H-cAMP competition), GST-GAFb
T3 sequence (P94182 270-431): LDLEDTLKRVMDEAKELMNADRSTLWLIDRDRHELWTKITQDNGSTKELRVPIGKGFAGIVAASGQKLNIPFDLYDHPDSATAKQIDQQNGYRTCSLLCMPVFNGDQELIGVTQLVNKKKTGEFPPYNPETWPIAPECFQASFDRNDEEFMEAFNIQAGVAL

[9] = system: CyaB1-CyaB2 fusion protein; details: read-out: EC50, cAMP-mediated activation of a related adenylyl cyclase domain; ref Bruder et al., 2005; cited from earlier work
HEK293T cells = assay: Intracellular cNMP estimation by radioimmunoassay; assay type: cell-based, Human; details: 100 µM forskolin, 5 min
Experimental: Intracellular levels of cyclic nucleotide monophosphates (cNMP) were measured from the cells used for BRET measurements, or […] transfected and treated cells. Cells were lysed in 0.1 N HCl and cNMP was measured by radioimmunoassay as described earlier ([Bakre, […], 2000]).

[10] = system: HEK293T cells expressing the GAFb sensor; assay: Cellular BRET assay, GAFb sensor; assay type: cell-based, Human; details: 100 µM; forskolin 5 min, SNP 2 min, 37 °C

T1 sequence (O76074 148-315 F205A): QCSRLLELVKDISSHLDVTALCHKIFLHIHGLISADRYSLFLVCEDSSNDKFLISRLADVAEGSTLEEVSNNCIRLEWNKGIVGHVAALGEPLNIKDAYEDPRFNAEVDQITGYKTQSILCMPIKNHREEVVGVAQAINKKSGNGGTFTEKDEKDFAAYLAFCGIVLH

Structure (SMILES)	change in affinity vs wild type GAFb [1]	change in affinity vs wild type GAFb [2]	change in BRET ratio [3]	change in BRET [4]	change in BRET ratio (PDE5 GAFa(F163A) sensor)	change in BRET [5]	IC50 [6]	fold higher affinity than the isolated GAFb domain [7]	Kd [8]	EC50 [9]	IC50 ([6]; tandem GAFab, ∼1 nM 3H-cAMP, read-out: IC50, competition with 3H-cAMP binding)	fold lower affinity compared to the isolated GAFb domain [7]	IC50 ([8]; isolated GAFb, ∼1 nM 3H-cAMP)	intracellular levels of cAMP (HEK293T cells)	change in BRET ratios in live cells [10]
Nc1ncnc2c1ncn2[C@@H]1O[C@@H]2COP(=O)(O)O[C@H]2[C@H]1O [cAMP, adenosine 3′, 5′—cyclic monophosphate]	significant reduction in the affinity	no change in the affinity	no change in the BRET ratio	did not result in a significant alteration	large increase in the BRET ratio	did not result in a significant alteration	0.05 ± 0.02 µM	16 fold	0.8 ± 0.2 µM	~1.3 µM					
Nc1nc2c(ncn2[C@@H]2O[C@@H]3COP(=O)(O)O[C@H]3[C@H]2O)c(=O)[nH]1 [cGMP, guanosine 3′, 5′—cyclic monophosphate]	remained unaltered	reduction in the affinity	no change in the BRET ratio	did not result in a significant alteration	large increase in the BRET ratio	did not result in a significant alteration					2650 µM	348 fold	7.6 ± 1.9 µM		
C=C[C@@]1(C)CC(=O)[C@]2(O)[C@@]3(C)[C@@H](O)CCC(C)(C)[C@@H]3[C@H](O)[C@H](OC(C)=O)[C@@]2(C)O1 [forskolin]														increased intracellular levels	no significant changes
